Several values for one entry are separate records, joined by “and”; a condition that tells them apart may be missing. Equal entries are not always repeated.
What was measured:
mGluR2 [1] = molecular target: mGluR2 (Mus musculus, UniProt Q14BI2, INS715F); experiment: Live-cell FRET, azi-ECL2 (7TM domain, extracellular loop 2) sensor in HEK293T cells; conditions: for Mean normalized azi-ECL2 FRET response: glutamate + 0.5μM modulator, maximal response normalized to 1mM glutamate;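 for all read-outs here: Cy3/Cy5 click-labeled sensor, whole-membrane ROIs per cell, apparent FRET after bleed-through correction, ΔFRET as treatment minus pre-treatment signal, at room temperature, at least three biological replicates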
Sequence of mGluR2 (Mus musculus, UniProt Q14BI2, INS715F) (Q14BI2 with tags, fused parts or gaps INS715F): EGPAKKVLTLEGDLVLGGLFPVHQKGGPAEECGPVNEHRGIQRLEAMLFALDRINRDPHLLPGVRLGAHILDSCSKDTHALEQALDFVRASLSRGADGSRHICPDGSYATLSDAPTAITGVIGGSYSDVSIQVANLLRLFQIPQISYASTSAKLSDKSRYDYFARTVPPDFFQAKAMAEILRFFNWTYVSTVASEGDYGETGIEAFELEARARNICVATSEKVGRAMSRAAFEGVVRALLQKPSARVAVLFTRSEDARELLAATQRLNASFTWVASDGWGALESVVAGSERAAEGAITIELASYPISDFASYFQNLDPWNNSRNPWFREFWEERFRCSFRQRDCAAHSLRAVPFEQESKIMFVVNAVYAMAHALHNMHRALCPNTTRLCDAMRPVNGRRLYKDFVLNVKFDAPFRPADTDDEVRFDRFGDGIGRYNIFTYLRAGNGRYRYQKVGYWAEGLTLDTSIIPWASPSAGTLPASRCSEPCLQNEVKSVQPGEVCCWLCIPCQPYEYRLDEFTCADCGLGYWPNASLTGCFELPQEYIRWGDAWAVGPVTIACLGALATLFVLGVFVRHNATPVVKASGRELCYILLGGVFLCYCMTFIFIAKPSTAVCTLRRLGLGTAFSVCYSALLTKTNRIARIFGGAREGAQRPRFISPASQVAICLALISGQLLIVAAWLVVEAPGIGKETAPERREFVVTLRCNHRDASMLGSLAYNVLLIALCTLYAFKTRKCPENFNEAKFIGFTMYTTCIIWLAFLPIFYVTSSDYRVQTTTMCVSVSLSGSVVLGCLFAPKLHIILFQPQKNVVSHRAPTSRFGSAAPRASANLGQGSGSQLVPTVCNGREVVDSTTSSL

mGluR2 [2] = molecular target: T1, mGluR2 (Mus musculus, UniProt Q14BI2); experiment: Functional calcium imaging, SNAP-mGluR2 (no FLAG-tag) with chimeric G protein Gqo5 in HEK293T cells; format: cell-based; parameters: Full length mGluR2 construct with an amber codon (TAG) mutation of amino acid A548 (azi-CRD) or N-terminal SNAP-tag (SNAP-mGluR2); host or cells: HEK293T; conditions: modulator alone; precluded analysis of glutamate potency and efficacy
T1 sequence (Q14BI2 19-872): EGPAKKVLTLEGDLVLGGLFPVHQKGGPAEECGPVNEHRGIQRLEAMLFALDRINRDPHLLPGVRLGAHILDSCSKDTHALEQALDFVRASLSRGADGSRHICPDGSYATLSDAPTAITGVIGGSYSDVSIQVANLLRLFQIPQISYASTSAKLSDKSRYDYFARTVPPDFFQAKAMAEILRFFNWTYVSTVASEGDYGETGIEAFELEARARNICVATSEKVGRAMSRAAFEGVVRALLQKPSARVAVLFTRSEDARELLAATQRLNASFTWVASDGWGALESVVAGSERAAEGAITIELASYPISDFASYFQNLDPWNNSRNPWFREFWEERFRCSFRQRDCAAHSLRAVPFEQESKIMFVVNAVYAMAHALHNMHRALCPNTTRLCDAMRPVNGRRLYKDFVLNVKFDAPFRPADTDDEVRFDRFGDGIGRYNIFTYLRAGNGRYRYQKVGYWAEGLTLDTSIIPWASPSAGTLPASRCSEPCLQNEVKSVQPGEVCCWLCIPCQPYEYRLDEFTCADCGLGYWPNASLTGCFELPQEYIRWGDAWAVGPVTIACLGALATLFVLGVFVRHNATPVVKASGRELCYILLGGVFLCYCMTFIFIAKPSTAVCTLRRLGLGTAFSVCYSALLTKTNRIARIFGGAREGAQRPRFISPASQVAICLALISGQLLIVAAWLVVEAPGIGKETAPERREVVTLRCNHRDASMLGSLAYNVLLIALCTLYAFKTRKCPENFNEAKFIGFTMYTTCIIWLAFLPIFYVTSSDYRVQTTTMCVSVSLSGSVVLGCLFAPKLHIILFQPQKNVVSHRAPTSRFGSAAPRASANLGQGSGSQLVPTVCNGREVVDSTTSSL

mGluR2 [3] = molecular target: mGluR2 (Mus musculus, UniProt Q14BI2, A548F); experiment: Live-cell FRET, azi-CRD (cysteine-rich domain) sensor in HEK293T cells; conditions: for Mean normalized FRET response, azi-CRD PAM DRC: glutamate + 0.5μM JNJ-42153605, maximal response normalized to 1mM glutamate
Sequence of mGluR2 (Mus musculus, UniProt Q14BI2, A548F) (Q14BI2 19-872 A548F): as the sequence (Q14BI2 19-872) above, with A530F counted along it

mGluR2 [4] = molecular target: T1, mGluR2; experiment: Live-cell FRET, SNAP-m2 (VFT domain) inter-subunit sensor in HEK293T cells; conditions: for SNAP-m2 FRET response (PAM DRC) / SNAP-m2 FRET response (PAM DRC), Mean: Glutamate + 0.5μM JNJ-42153605; for SNAP-m2 FRET response (PAM DRC): individual cells, normalized to 1mM glutamate;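 for all read-outs here: apparent FRET efficiency from whole-membrane ROIs of single cells, corrected for donor bleed-through and background, ΔFRET as treatment minus pretreatment signal, recorded at room temperature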
[5] = 0.5μM JNJ-42153605, ([1 mM glutamate + modulator] - [1 mM glutamate]) × 100

azi-ECL2 - ΔEfficacy, Mean ΔEfficacy (mGluR2 [1]; [5]): -1.362
Mean ΔPotency (mGluR2 [1]; 0.5μM modulator, (([modulator + glutamate]EC50 – [glutamate] EC50)/[glutamate] EC50) × 100): -56.3563
Change in glutamate efficacy by FRET signal at ECL2 (mGluR2 [1]; azi-ECL2, 0.5 μM modulator): no change in efficacy
Mean max response (normalized max ΔFRET) (mGluR2 [1]; azi-ECL2, 1 mM glutamate + 0.5 μM modulator, normalized to 1 mM glutamate): 0.99
Hill slope of glutamate titration (mGluR2 [1]; azi-ECL2 sensor, + 0.5 μM modulator): 0.97
Mean normalized azi-ECL2 FRET response (mGluR2 [1]; log[Glutamate] (M) -3): 0.9864
Mean normalized azi-ECL2 FRET response (mGluR2 [1]; log[Glutamate] (M) -4.1549): 0.9409
Mean normalized azi-ECL2 FRET response (mGluR2 [1]; log[Glutamate] (M) -4.52288): 0.8615
Mean normalized azi-ECL2 FRET response (mGluR2 [1]; log[Glutamate] (M) -5): 0.7669
Mean normalized azi-ECL2 FRET response (mGluR2 [1]; log[Glutamate] (M) -5.39794): 0.6334
Mean normalized azi-ECL2 FRET response (mGluR2 [1]; log[Glutamate] (M) -5.82391): 0.3885
Mean normalized azi-ECL2 FRET response (mGluR2 [1]; log[Glutamate] (M) -6.52288): 0.08595
Mean normalized azi-ECL2 FRET response (mGluR2 [1]; log[Glutamate] (M) -7): 0.01271
Mean normalized azi-ECL2 FRET response (mGluR2 [1]; log[Glutamate] (M) -7.30103): 0
Mean normalized azi-ECL2 FRET response (mGluR2 [1]; log[Glutamate] (M) -7.69897): 0
Effect of modulator itself on intracellular calcium flux (mGluR2 [2]): Direct activation of mGluR2
azi-CRD - ΔEfficacy, Mean ΔEfficacy (mGluR2 [3]; [5]): 43.306
Hill slope of glutamate titration (mGluR2 [3]; azi-CRD sensor, + 0.5 μM modulator): 0.84
Mean max response (normalized max ΔFRET) (mGluR2 [3]; azi-CRD, 1 mM glutamate + 0.5 μM modulator, normalized to 1 mM glutamate): 1.43
Mean ΔPotency (mGluR2 [3]; azi-CRD, 0.5μM modulator, (([modulator + glutamate]EC50 – [glutamate] EC50)/[glutamate] EC50) × 100): -59.6016
Mean normalized FRET response, azi-CRD PAM DRC (mGluR2 [3]; log[Glutamate] (M) -3): 1.433
Mean normalized FRET response, azi-CRD PAM DRC (mGluR2 [3]; log[Glutamate] (M) -4.1549): 1.38
Mean normalized FRET response, azi-CRD PAM DRC (mGluR2 [3]; log[Glutamate] (M) -4.52288): 1.273
Mean normalized FRET response, azi-CRD PAM DRC (mGluR2 [3]; log[Glutamate] (M) -5): 1.071
Mean normalized FRET response, azi-CRD PAM DRC (mGluR2 [3]; log[Glutamate] (M) -5.39794): 0.8185
Mean normalized FRET response, azi-CRD PAM DRC (mGluR2 [3]; log[Glutamate] (M) -5.82391): 0.5065
Mean normalized FRET response, azi-CRD PAM DRC (mGluR2 [3]; log[Glutamate] (M) -6.52288): 0.2306
Mean normalized FRET response, azi-CRD PAM DRC (mGluR2 [3]; log[Glutamate] (M) -7): 0.112
Mean normalized FRET response, azi-CRD PAM DRC (mGluR2 [3]; log[Glutamate] (M) -7.30103): 0.06166
Mean normalized FRET response, azi-CRD PAM DRC (mGluR2 [3]; log[Glutamate] (M) -7.69897): 0
SNAP-m2 - ΔEfficacy, Mean ΔEfficacy (mGluR2 [4]; [5]): 1.081
SNAP-m2 FRET response (PAM DRC) (mGluR2 [4]; log[Glutamate] (M) -3): -1.011
SNAP-m2 FRET response (PAM DRC), Mean (mGluR2 [4]; log[Glutamate] (M) -3): -1.011
SNAP-m2 FRET response (PAM DRC), Mean (mGluR2 [4]; log[Glutamate] (M) -4.1549): -1.001
SNAP-m2 FRET response (PAM DRC), Mean (mGluR2 [4]; log[Glutamate] (M) -4.52288): -0.9596
SNAP-m2 FRET response (PAM DRC), Mean (mGluR2 [4]; log[Glutamate] (M) -5): -0.8006
SNAP-m2 FRET response (PAM DRC), Mean (mGluR2 [4]; log[Glutamate] (M) -5.39794): -0.6293
SNAP-m2 FRET response (PAM DRC), Mean (mGluR2 [4]; log[Glutamate] (M) -5.82391): -0.4469
SNAP-m2 FRET response (PAM DRC) (mGluR2 [4]; log[Glutamate] (M) -6): -0.07432 and -0.0721
SNAP-m2 FRET response (PAM DRC), Mean (mGluR2 [4]; log[Glutamate] (M) -6): -0.07321
SNAP-m2 FRET response (PAM DRC), Mean (mGluR2 [4]; log[Glutamate] (M) -6.52288): -0.1478
SNAP-m2 FRET response (PAM DRC) (mGluR2 [4]; log[Glutamate] (M) -7): -0.1024 and -0.08845 and 0 (3×)
SNAP-m2 FRET response (PAM DRC), Mean (mGluR2 [4]; log[Glutamate] (M) -7): -0.03816
SNAP-m2 FRET response (PAM DRC) (mGluR2 [4]; log[Glutamate] (M) -7.30103): -0.03839 and 0 (4×)
SNAP-m2 FRET response (PAM DRC), Mean (mGluR2 [4]; log[Glutamate] (M) -7.30103): -0.00768
SNAP-m2 FRET response (PAM DRC) (mGluR2 [4]; log[Glutamate] (M) -7.69897): 0
SNAP-m2 FRET response (PAM DRC), Mean (mGluR2 [4]; log[Glutamate] (M) -7.69897): 0
Mean max response (normalized max ΔFRET) (mGluR2 [4]; SNAP-m2, 1 mM glutamate + 0.5 μM modulator, normalized to 1 mM glutamate): 1.01
Mean ΔPotency (mGluR2 [4]; SNAP-m2, 0.5μM modulator, (([modulator + glutamate]EC50 – [glutamate] EC50)/[glutamate] EC50) × 100): -64.9475
Mean ΔEfficacy (mGluR2 [4]; SNAP-m2, 0.5μM modulator, ([1 mM glutamate + modulator] - [1 mM glutamate]) × 100): 1.081
Hill slope of glutamate titration (mGluR2 [4]; SNAP-m2 sensor, + 0.5 μM modulator): –0.95
Structure (SMILES): FC(F)(F)c1c(N2CCC(c3ccccc3)CC2)ccn2c(CC3CC3)nnc12 [JNJ-42153605, 3-cyclopropylmethyl-7-(4-phenylpiperidin-1-yl)-8-trifluoromethyl[1,2,4]triazolo[4,3-a]pyridine]
ΔPotency, individual cell responses (mGluR2 [1]; 0.5μM modulator, single cells, (([modulator + glutamate]EC50 – [glutamate] EC50)/[glutamate] EC50) × 100): -56.3361 and -69.1679 and -73.0287 and -52.3819 and -40.5992 and -58.985 and -50.7357 and -45.7659 and -53.2747 and -65.0568 and -56.2788 and -59.6269 and -60.7335 and -44.1256 and -58.5158 and -54.4905 and -58.9548
ΔEfficacy, individual cell responses (mGluR2 [1]; 0.5μM modulator, single cells, ([1 mM glutamate + modulator] - [1 mM glutamate]) × 100): -2.941 and 0.7843 and -9.091 and 0.4875 and -2.828 and 1.987 and -3.4754 and -3.284 and -3.415 and -12.5737 and -5.278 and 16.4947 and 5.4247
azi-CRD - ΔEfficacy, individual cell responses (mGluR2 [3]; 0.5μM JNJ-42153605, single cells): 82.2727 and 42.4779 and 50.5102 and 41.4773 and 23.5294 and 12.5265 and 26.2467 and 67.4074
Live-cell FRET max response normalized to 1mM glutamate (mGluR2 [3]; azi-CRD sensor, Glutamate + 0.5μM JNJ-42153605, individual values (N=8)): 1.235 and 1.125 and 1.262 and 1.674 and 1.823 and 1.425 and 1.5051 and 1.415
ΔPotency, individual cell (mGluR2 [3]; azi-CRD, 0.5μM modulator, calculated from individual cell responses): -88.5847 and -77.2559 and -86.9416 and -84.6067 and -90.4873 and -15.0698 and -44.7131 and -29.6276 and 9.8556
SNAP-m2 FRET response (PAM DRC) (mGluR2 [4]; log[Glutamate] (M) -4.1549): -1.026 and -1.036 and -0.9975 and -0.9514 and -0.995
SNAP-m2 FRET response (PAM DRC) (mGluR2 [4]; log[Glutamate] (M) -4.52288): -1.0364 and -1.036 and -1.011 and -0.8324 and -0.8825
SNAP-m2 FRET response (PAM DRC) (mGluR2 [4]; log[Glutamate] (M) -5): -1.011 (2×) and -0.9177 and -0.5203 and -0.5436
SNAP-m2 FRET response (PAM DRC) (mGluR2 [4]; log[Glutamate] (M) -5.39794): -0.9084 and -0.9097 and -0.7581 and -0.2676 and -0.3028
SNAP-m2 FRET response (PAM DRC) (mGluR2 [4]; log[Glutamate] (M) -5.82391): -0.7293 and -0.6949 and -0.532 and -0.1338 and -0.1442
SNAP-m2 FRET response (PAM DRC) (mGluR2 [4]; log[Glutamate] (M) -6.52288): -0.2853 and -0.2653 and -0.1596 and 0 and -0.02884

Reference: paper PMC9299836 (eLife, 2022)
